Experimental data as given in US20250092033A1, “HETEROAROMATIC NITROGEN-OXIDE COMPOUND, PREPARATION METHOD THEREFOR, AND USE THEREOF” (BEIJING AVISTONE BIOTECHNOLOGY CO., LTD., priority 2021, published 2025).

What was measured:
[1] = target: T1, wild type (WT) MET kinase (Homo sapiens, UniProt P08581); assay: Kinase inhibition experiment (HTRF KinEASE-TK kit), wild-type MET; format: biochemical; conditions: 10 concentrations, 3-fold dilution
T1 construct: purchased Carna 08-151
Experimental: (§1) The activity of the compounds was determined by detecting the residual amount of ATP after reacting with wild-type or mutant MET protein kinase by using an HTRF KinEASE-TK kit. […]
(§2) The compounds were determined on the selected kinase, the solvent control was set and a total of 10 concentrations were detected, diluted 3-fold, 2 replicates per concentration.
(§3) 1 volume of 5× kinase reaction buffer and 4 volumes of water; 5 mM MgCl2; 1 mM DTT; 1 mM MnCl2; or 2500 nm SEB.
(§4) 1) 10 nl or 4 μlof the diluted compound was transferred to each well of the reaction plate (784075 or 264706, Greiner or Thermo) with a pipette, the reaction plate was sealed with a sealing plate, and centrifuged at 1000 for 1 minute.
(§5) 2) 2× MET was prepared from 1× enzyme reaction buffer, 5 μl or 2 μl kinase was added to each well of the reaction plate, the reaction plate was sealed with a sealing plate, centrifuged at 1000 g for 30 seconds and incubated at room temperature for 10 min.
(§6) 3) a mixed solution of 2× TK-substrate-biotin and ATP were prepared from 1× enzyme reaction buffer solution, 5 μl or 2 μl TK-substrate-biotin/ATP of the mixed solution was added into a reaction plate, the reaction plate was sealed with a sealing plate, centrifuged at 1000 g for 30 seconds and reacted for 50 minutes or 10 minutes at room temperature.
(§7) 4) a mixed solution of 4× or 2× Sa-XL 665 and TK-antibody-Cryptate were prepared from HTRF detection buffer, 5 or 10 μl of the mixed solution of Sa-XL 665 and TK-antibody-Cryptate was added into each well, centrifuged at 1000 g for 30 seconds, and reacted at room temperature for 1 h.
(§8) 5) the fluorescence signals at 615 nm (cryptate) and 665 nm (XL665) were read with Envision 2104 or TECAN.
(§9) The data was analyzed using GraphPad Prism 6.0 or 7 software, and the dose-response curve was fitted with nonlinear S-curve regression, and the IC50 value was calculated therefrom.
(§10) Enzyme Inhibition Percent (%)=100-(Signalmpd-SignalAve_PC)/(SignalAve_VC-SignalAve_PC)×100

H1993 cell line = assay: Cell proliferation inhibition experiment (CellTiter-Glo), H1993; format: cell-based; conditions: Homo sapiens, NCI-H1993, CTG, 72 h
Experimental: (§11) CellTiter-Glo™ live cell detection kit adopts luciferase as the detection substance, and the luciferase needs the participation of ATP in the luminescence process. CellTiter-Glo™ reagent was added into the cell culture medium and the luminescence value was measured. The light signal is in direct proportion to the amount of ATP in the system, ATP is in direct correlation with number of living cells. Therefore, the proliferation of cells can be detected by detecting the content of ATP with CellTiter-Glo kit.
(§12) In the experiment, the proliferation inhibition effect of the prepared compounds on tumor cell lines Hs746T, EBC-1 and H1993 was measured by a celltiter-glo (CTG) method, and 50% inhibition concentration IC50 was calculated.
(§13) The compounds were determined on the selected cells, the solvent control was set and a total of 10 concentrations were detected, 2 replicates per concentration.
(§14) a) Cells in the logarithmic growth phase were harvested and counted by a […]. The cell viability was detected by a trypan blue exclusion method to ensure that the cell viability was over 90%.
(§15) b) The cell concentration was adjusted; 30 μL of cell suspension was added to a 384-well plate respectively.
(§16) c) Cells in a 384-well plate were incubated overnight at 37° C., 5% CO2 and 95% humidity.
(§17) a) 10 times of drug solution was prepared with the highest concentration of 10 mM, 10 concentrations and 3 times dilution, 10 μL of drug solution was added into each well of a 384-well plate inoculated with cells, and three multiple wells were arranged for each drug concentration. DMSO was the blank control.
(§18) b) The cells in the 384-well plate were incubated for a further 72 h at 37° C., 5% CO2 and 95% humidity before CTG analysis.
(§19) a) The CTG reagent was melted and the cell plate was equilibrated to room temperature for 30 min.
(§20) b) An equal volume of CTG solution was added to each well.
(§21) c) Cells were lysed by shaking on an orbital shaker for 5 minutes.
(§22) d) The cell plate was left at room temperature for 20 minutes to stabilize the luminescence signal.
(§23) e) The cold light value was read.
(§24) The data was analyzed by GraphPad Prism 8 software, and the dose-response curve was fitted with nonlinear S-curve regression, and the IC50 value was calculated therefrom.
(§25) Cell viability(%)=(Lumdrugs to be tested-Lumblank control)/(Lumcell control-Lumblank control)×100%.

MET F1200I = target: T2, MET F1200I (Homo sapiens, UniProt P08581, F1200I); assay: Kinase inhibition experiment (HTRF KinEASE-TK kit), mutant MET F1200I; format: biochemical; conditions: 10 concentrations, 3-fold dilution
T2 construct: purchased Signalchem M52-12GG/Y767-2
T2 sequence (P08581 25-1390 F1200I): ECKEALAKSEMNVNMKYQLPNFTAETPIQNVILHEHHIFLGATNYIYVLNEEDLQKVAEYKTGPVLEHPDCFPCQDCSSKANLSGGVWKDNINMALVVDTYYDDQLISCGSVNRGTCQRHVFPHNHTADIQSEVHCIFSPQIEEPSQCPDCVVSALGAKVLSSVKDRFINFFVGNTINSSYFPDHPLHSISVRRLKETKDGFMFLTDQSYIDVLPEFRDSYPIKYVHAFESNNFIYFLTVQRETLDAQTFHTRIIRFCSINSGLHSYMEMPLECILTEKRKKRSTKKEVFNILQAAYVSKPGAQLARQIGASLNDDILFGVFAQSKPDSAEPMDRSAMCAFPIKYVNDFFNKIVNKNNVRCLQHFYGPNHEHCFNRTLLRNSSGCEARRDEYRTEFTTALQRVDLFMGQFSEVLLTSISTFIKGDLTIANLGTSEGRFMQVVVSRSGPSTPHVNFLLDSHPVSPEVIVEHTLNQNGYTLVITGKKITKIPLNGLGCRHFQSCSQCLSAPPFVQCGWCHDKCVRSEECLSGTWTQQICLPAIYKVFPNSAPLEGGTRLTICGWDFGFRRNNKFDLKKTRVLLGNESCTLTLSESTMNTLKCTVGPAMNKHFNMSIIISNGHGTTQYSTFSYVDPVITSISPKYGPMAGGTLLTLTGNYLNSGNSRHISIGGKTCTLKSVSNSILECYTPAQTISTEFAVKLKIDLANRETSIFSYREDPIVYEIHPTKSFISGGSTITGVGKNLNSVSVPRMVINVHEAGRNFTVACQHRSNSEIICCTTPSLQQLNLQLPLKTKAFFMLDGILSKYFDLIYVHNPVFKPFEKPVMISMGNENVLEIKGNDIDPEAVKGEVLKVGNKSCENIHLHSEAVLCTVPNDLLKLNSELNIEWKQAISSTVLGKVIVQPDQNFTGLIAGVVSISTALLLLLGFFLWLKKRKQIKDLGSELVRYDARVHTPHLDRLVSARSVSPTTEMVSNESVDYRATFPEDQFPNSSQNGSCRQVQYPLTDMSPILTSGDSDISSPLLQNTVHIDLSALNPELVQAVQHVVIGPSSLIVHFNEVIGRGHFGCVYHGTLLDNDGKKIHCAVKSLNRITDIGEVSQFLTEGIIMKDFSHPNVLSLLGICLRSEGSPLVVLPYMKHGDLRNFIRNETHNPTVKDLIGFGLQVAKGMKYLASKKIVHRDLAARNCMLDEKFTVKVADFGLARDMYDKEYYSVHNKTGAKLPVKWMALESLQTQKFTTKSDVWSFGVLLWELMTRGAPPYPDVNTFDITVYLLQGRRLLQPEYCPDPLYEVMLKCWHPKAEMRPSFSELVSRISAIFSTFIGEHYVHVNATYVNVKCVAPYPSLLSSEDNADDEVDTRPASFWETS
Experimental: as §1, §2, §3, §4, §5, §6, §7, §8, §9, §10

MET D1228N = target: T3, MET D1228N (Homo sapiens, UniProt P08581, D1228N); assay: Kinase inhibition experiment (HTRF KinEASE-TK kit), mutant MET D1228N; format: biochemical; conditions: 10 concentrations, 3-fold dilution
T3 construct: purchased Signalchem M52-12IG
T3 sequence (P08581 25-1390 D1228N): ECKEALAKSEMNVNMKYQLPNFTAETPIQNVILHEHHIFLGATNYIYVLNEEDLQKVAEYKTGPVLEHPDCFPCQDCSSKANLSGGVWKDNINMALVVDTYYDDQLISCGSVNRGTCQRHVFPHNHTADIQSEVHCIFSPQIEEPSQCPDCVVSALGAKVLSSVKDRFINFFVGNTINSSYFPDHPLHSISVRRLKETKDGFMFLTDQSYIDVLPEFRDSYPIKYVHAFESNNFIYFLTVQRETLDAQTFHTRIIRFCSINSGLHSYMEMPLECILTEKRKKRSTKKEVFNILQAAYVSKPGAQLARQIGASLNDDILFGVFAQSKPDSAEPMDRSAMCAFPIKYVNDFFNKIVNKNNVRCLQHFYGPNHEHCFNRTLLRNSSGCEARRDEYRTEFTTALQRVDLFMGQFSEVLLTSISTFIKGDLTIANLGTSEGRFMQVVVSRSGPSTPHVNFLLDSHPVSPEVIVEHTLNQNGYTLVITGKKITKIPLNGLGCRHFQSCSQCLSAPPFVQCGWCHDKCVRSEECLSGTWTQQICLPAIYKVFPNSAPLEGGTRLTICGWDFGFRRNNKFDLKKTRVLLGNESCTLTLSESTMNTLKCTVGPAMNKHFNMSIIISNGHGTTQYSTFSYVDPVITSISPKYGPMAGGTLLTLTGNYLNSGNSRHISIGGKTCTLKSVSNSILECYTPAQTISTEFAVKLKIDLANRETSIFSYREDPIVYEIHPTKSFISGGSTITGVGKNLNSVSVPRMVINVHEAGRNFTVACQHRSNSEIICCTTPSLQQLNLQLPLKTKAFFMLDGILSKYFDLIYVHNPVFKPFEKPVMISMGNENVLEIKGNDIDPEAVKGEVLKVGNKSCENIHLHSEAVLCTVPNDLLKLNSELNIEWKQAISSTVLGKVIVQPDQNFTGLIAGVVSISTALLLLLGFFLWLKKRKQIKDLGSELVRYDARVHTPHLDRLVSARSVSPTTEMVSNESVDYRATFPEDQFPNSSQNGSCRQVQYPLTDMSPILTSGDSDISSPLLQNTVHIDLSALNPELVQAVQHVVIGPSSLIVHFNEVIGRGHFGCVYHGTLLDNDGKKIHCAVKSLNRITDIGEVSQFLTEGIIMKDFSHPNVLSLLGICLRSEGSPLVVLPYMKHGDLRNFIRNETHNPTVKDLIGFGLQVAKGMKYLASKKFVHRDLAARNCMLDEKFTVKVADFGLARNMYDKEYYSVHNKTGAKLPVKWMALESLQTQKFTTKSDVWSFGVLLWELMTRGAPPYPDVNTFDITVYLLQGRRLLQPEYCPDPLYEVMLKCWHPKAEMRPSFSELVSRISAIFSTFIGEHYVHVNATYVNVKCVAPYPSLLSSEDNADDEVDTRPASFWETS
Experimental: as §1, §2, §3, §4, §5, §6, §7, §8, §9, §10

Hs746T cell line = assay: Cell proliferation inhibition experiment (CellTiter-Glo), Hs746T; format: cell-based; conditions: Homo sapiens, Hs 746T, CTG, 72 h
Experimental: as §11, §12, §13, §14, §15, §16, §17, §18, §19, §20, §21, §22, §23, §24, §25

T1 sequence (P08581 25-1390): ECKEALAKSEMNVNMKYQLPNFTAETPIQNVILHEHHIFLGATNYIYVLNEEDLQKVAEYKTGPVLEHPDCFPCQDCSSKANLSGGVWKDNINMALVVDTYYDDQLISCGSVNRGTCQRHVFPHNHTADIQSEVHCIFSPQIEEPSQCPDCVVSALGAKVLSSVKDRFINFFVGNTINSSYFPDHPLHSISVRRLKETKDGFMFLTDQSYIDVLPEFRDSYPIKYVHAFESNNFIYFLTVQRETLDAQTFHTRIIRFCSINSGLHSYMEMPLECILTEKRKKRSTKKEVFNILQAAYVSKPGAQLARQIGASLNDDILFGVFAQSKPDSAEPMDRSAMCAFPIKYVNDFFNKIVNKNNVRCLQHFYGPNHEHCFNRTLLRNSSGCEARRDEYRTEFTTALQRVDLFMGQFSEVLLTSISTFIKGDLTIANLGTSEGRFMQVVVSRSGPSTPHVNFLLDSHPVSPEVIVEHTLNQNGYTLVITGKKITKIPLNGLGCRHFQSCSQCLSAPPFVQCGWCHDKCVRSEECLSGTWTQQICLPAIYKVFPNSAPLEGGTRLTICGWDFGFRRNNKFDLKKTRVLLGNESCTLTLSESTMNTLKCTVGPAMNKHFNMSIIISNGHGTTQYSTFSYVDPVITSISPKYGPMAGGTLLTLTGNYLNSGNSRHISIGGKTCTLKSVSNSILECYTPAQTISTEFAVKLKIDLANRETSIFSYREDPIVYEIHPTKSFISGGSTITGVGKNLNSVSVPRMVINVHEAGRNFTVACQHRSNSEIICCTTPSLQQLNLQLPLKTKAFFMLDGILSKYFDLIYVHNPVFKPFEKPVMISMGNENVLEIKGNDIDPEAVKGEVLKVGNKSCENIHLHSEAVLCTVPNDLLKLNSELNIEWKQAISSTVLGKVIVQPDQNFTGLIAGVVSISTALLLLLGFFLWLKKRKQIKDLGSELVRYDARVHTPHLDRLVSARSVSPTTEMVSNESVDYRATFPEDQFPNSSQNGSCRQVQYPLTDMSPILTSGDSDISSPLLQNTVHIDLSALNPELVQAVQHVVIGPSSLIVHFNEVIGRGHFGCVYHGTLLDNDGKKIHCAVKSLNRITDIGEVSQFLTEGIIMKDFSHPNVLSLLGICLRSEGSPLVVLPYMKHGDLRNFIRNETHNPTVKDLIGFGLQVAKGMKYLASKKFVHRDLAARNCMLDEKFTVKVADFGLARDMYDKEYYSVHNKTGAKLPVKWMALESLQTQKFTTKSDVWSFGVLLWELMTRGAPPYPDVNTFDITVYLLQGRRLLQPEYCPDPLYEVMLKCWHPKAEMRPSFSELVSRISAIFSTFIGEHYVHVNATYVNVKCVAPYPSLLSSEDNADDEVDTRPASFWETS

Row | Compound | IC50 [1] [nM] | IC50 (H1993 cell line) [nM] | IC50 (MET F1200I) [nM] | IC50 (MET D1228N) [nM] | IC50 (Hs746T cell line) [nM]
1 | CC(O)C1CCN(c2n[nH]c3nccc(Oc4ccc(NC(=O)c5cccc(-c6ccc(F)cc6)[n+]5[O-])cc4F)c23)CC1 (stereo not shown) [Final product 31] | 3 | 35 | 7.9 | 40.7 | 
2 | C[C@H](CO)Nc1n[nH]c2nccc(Oc3ccc(NC(=O)c4ccc(OC(F)F)c(-c5ccc(F)cc5)[n+]4[O-])cc3Cl)c12 [Final product 139] | 4.5 | 31.1 | 15.3 | 18.5 | 
3 | CC(O)C1CN(c2n[nH]c3nccc(Oc4ccc(NC(=O)c5cccc(-c6ccc(F)cc6)[n+]5[O-])cc4Cl)c23)C1 (stereo not shown) [Final product 107] | 1.6 | 76.9 | 12.3 | 26.8 | 
4 | O=C(Nc1ccc(Oc2ccnc3[nH]nc(NCC(O)CO)c23)c(F)c1)c1cccc(-c2ccc(F)cc2)[n+]1[O-] (stereo not shown) [Final product 15] | 1.3 | 39.4 | 6.5 | 20.1 | 21.6
5 | C[C@H](CO)Nc1n[nH]c2nccc(Oc3ccc(NC(=O)c4ccc(Cl)c(-c5ccc(F)cc5)[n+]4[O-])cc3Cl)c12 [Final product 121] | 4.3 | 42.3 | 11.4 | 19 | 
6 | C[C@H](CO)Nc1n[nH]c2nccc(Oc3ccc(NC(=O)c4ccc(Cl)c(-c5ccc(F)cc5)[n+]4[O-])c(F)c3)c12 [Final product 159] | 3 | 78.4 | 2 | 14.8 | 
7 | O=C(Nc1ccc(Oc2ccnc3[nH]nc(NCC(CO)CO)c23)c(F)c1)c1cccc(-c2ccc(F)cc2)[n+]1[O-] [Final product 17] | 1.4 | 68.4 | 5.8 | 7.5 | 
8 | O=C(Nc1ccc(Oc2ccnc3[nH]nc(N4CCC(O)CC4)c23)c(F)c1)c1cccc(-c2ccc(F)cc2)[n+]1[O-] [Final product 26, 2-((3-fluoro-4-((3-(4-hydroxypiperidin-1-yl)-1H-pyrazolo[3,4-b]pyridin-4-yl)oxy)phenyl)carbamoyl)-6-(4-fluorophenyl)pyridine 1-oxide] | 3.8 |  | 9.5 | 18.1 | 
9 | Cc1ccc(C(=O)Nc2ccc(Oc3ccnc4[nH]nc(NCC5(O)CC5)c34)c(F)c2)[n+]([O-])c1-c1ccc(F)cc1 [Final product 70] | 6.9 | 12 |  | 35.5 | 24.4
10 | O=C(Nc1ccc(Oc2ccnc3[nH]nc(N[C@H]4COC[C@@H]4O)c23)c(Cl)c1)c1ccc(Cl)c(-c2ccc(F)cc2)[n+]1[O-] [Final product 123] | 1 |  | 10 | 30.1 | 
11 | C[C@H](CO)Nc1n[nH]c2nccc(Oc3ccc(NC(=O)c4ccc(F)c(-c5ccc(Cl)cc5)[n+]4[O-])cc3F)c12 [Final product 56] | 5 |  | 14.4 | 17.7 | 
12 | C[C@H](CO)Nc1n[nH]c2nccc(Oc3ccc(NC(=O)c4ccc(OCC(F)F)c(-c5ccc(F)cc5)[n+]4[O-])cc3Cl)c12 [Final product 141] | 1.9 |  | 33 | 26.3 | 
13 | CC(O)C(CO)CNc1n[nH]c2nccc(Oc3ccc(NC(=O)c4cccc(-c5ccc(F)cc5)[n+]4[O-])cc3Cl)c12 (stereo not shown) [Final product 102] | 1 |  | 2.1 | 6.3 | 
14 | CC1(O)CCN(c2n[nH]c3nccc(Oc4ccc(NC(=O)c5cccc(-c6ccc(F)cc6)[n+]5[O-])cc4F)c23)CC1 [Final product 27] | 4.5 |  | 8.6 | 13.4 | 
15 | C[C@H](CO)Nc1n[nH]c2nccc(Oc3ccc(NC(=O)c4ccc(C5CC5)c(-c5ccc(F)cc5)[n+]4[O-])cc3F)c12 [Final product 81] | 10.4 |  | 26 | 32.8 | 
16 | C[C@@H](Nc1n[nH]c2nccc(Oc3ccc(NC(=O)c4cccc(-c5ccc(F)cc5)[n+]4[O-])cc3F)c12)C(C)(C)O [Final product 16] | 7.5 |  | 25.8 | 28.2 | 
17 | O=C(Nc1ccc(Oc2ccnc3[nH]nc(NC4(CO)CC4)c23)c(F)c1)c1cccc(-c2ccc(F)cc2)[n+]1[O-] [Final product 22] | 5.9 |  | 15.5 | 25.5 | 
18 | CC[C@H](CO)Nc1n[nH]c2nccc(Oc3ccc(NC(=O)c4cccc(-c5ccc(F)cc5)[n+]4[O-])cc3F)c12 [Final product 5] | 5.2 | 33 | 10.8 | 12.8 | 
19 | O=C(Nc1ccc(Oc2ccnc3[nH]nc(N4CC(CO)C4)c23)c(F)c1)c1cccc(-c2ccc(F)cc2)[n+]1[O-] [Final product 25] | 1.9 | 62.2 | 4.3 | 20.5 | 
20 | C[C@H](CO)Nc1n[nH]c2nccc(Oc3ccc(NC(=O)c4cccc(-c5ccc(Cl)cc5)[n+]4[O-])cc3Cl)c12 [Final product 116] | 4.6 |  | 10.7 | 28.7 | 
21 | CC(O)CNc1n[nH]c2nccc(Oc3ccc(NC(=O)c4cccc(-c5ccc(F)cc5)[n+]4[O-])cc3F)c12 (stereo not shown) [Final product 8] | 4.6 |  | 2.3 | 28.4 | 
22 | [2H]C([2H])([2H])c1ccc(C(=O)Nc2ccc(Oc3ccnc4[nH]nc(N[C@H](C)CO)c34)c(Cl)c2)[n+]([O-])c1-c1ccc(F)cc1 [Final product 134] | 3.3 |  | 28.3 | 15.5 | 
23 | O=C(Nc1ccc(Oc2ccnc3[nH]nc(N4CCC[C@@H](CO)C4)c23)c(F)c1)c1cccc(-c2ccc(F)cc2)[n+]1[O-] [Final product 32] | 4.4 | 30.6 | 10.1 | 16.7 | 
24 | CC[C@@H](CO)Nc1n[nH]c2nccc(Oc3ccc(NC(=O)c4cccc(-c5ccc(F)cc5)[n+]4[O-])cc3F)c12 [Final product 6] | 8.5 |  | 21.4 | 30 | 
25 | C[C@H](CO)Nc1n[nH]c2nccc(Oc3cc(F)c(NC(=O)c4ccc(Cl)c(-c5ccc(F)cc5)[n+]4[O-])cc3F)c12 [Final product 157] | 1.7 |  | 17.5 | 46.2 | 
26 | O=C(Nc1ccc(Oc2ccnc3[nH]nc(N4CCC(F)(CO)CC4)c23)c(F)c1)c1cccc(-c2ccc(F)cc2)[n+]1[O-] [Final product 30] | 1.7 | 50.2 | 5.5 | 11.2 | 
27 | O=C(Nc1ccc(Oc2ccnc3[nH]nc(N[C@H]4CC[C@@H](O)C4)c23)c(Cl)c1)c1cccc(-c2ccc(F)cc2)[n+]1[O-] [Final product 114] | 5.1 |  | 10.7 | 18.7 | 
